Reference: patent US4447419A, “Thiazole derivative, and pharmaceutical compositions containing it” (Ausonia Farmaceutici s.r.l., priority 1981, dated 1984)

What was measured:
[1] = target: T1, rat hepatic glutathione-peroxidase (GSH-P) (Rattus norvegicus, UniProt P04041); assay: In vitro inhibition of glutathione-peroxidase (glutathione/NADPH/GSH-reductase/cumene hydroperoxide system); format: biochemical; conditions: concentration 0.025 mM
T1 construct: rat hepatic glutathione-peroxidase (GSH-P); from tissue; host or cells: rat liver
T1 sequence (P04041 1-201): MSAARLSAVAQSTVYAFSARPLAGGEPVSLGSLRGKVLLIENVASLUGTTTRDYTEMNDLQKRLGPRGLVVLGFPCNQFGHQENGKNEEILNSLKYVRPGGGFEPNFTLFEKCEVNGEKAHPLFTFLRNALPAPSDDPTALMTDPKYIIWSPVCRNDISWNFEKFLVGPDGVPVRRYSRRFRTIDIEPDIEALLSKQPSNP
Method: On the ground of these considerations and considering the above described pharmacological results, it has been assessed the efficacy of MR 729 in inhibiting in vitro the rat hepatic glutathione-peroxidase (GSH-P).
It has been used the system glutathione/NADPH/GSH-reductase/cumene hydroperoxide. It was shown that MR 729 inhibits of about 63% the GSH-P, at a concentration of 0.025 mM. The administration of MR 729 allows therefore a saving of endogenous glutathione and a consequent decrease of free peroxides. Compound MR 729 can be administered by oral, parenteral, rectal, aerosolic route in various forms. The compositions below are described as an example: […]

liver regeneration = assay: Liver regeneration in partially hepathectomized rats; format: in vivo; conditions: treated just after operation, assessed after 4 days
Source text: This study aimed to evidence whether MR 729 could affect the liver regeneration in partially hepathectomized rats.
The animals have been treated with the product under study just after their operation; the regeneration degree has been assessed after 4 days.

[2] = target: T2, angiotensin converting enzyme (ACE) (Homo sapiens, UniProt P12821); assay: In vitro inhibition of plasma ACE in normal human serum (method of Summary et al.); format: biochemical; design: ID50 (ACE inhibition): unit not given here; conditions: for ACE activity: control 30; for % Enzymatic activity: control 100
T2 construct: The plasma ACE has been determined by the method of Summary et al; from tissue; host or cells: normal human serum
Method: The plasma ACE has been determined by the method of Summary et al. (Clin. Sci. 50, 321, 1976) using histidyl-glycyl-histidine as a substrate.
Tests have been carried out with 20 ml of normal human serum.
A 0.1 M aqueous solution of MR 729 has been used.

[3] = test system: hepatic damage caused by α-naphtyl-isothiocyanate; assay: Intoxication by α-naphtyl-isothiocyanate; format: in vivo; conditions: rat, contemporary oral treatment, 8 days α-naphtyl-isothiocyanate
Source text: The hepatic damage caused by 8 days prolonged administration of α-naphtyl-isothiocyanate causes in the rate impairments in respect of cellular proliferation and hypertrophy of periportal spaces.

[4] = test system: pig's lyophilized gastric mucine; assay: In vitro mucolytic effect (method of Scheffner)
Source text: It has been followed the method described by Scheffner (Ann. N.Y. Acad. Sci. 106, 298, 1963) using as a substrate pig's lyophilized gastric mucine.

[5] = test system: time of hexobarbital induced sleep; assay: Hexobarbital induced sleep in rats intoxicated by carbon tetrachloride; format: in vivo
Method: Since the length of barbiturates induced sleep can be considered directly related to the metabolism rate of these drugs by the liver, it seemed appropiate to assess the influence of MR 729 on the time of hexobarbital induced sleep in rats intoxicated by carbon tetrachloride.
MR 729 has been administered by oral route for 4 consecutive days, at different doses; the animals were then treated with CCl4 and, after 48 hours, with hexobarbital.

[6] = Acute toxicity after single intraperitoneal administration; conditions: mouse, in vivo, ip, mice, 95% confidence limits 307-478
Source text: The toxicity of MR 729 after single administration has been studied in mice, by injecting the product at different doses by the intraperitoneal route.

bronchial secretion = assay: In vivo mucolytic effect, sodium fluorescein method (Mawatari); conditions: rat, 250 mg/kg intraperitoneal, 5 minutes before sodium fluorescein, determined after 30 minutes
Method: The effect of MR 729 on bronchial secretion has been studied in the rat with the method of sodium fluorescein described by Mawatari (Kagoshima Daigakeu Igakeu Zasshi, 27, 561, 1976).
The product under study has been administered by intraperitoneal route 5 minutes before the solution of sodium fluoroscein, whose amount in the bronchial secretion has been determined after 30 minutes.

[7] = test system: lipid infiltration experimentally induced by CCl4; assay: Intoxication by CCl4, liver lipids; format: in vivo; conditions: 12 hours fasting rats, oral route at different doses 2 hours before CCl4, sacrificed after 20 hours
Method: The study has been carried out on 12 hours fasting rats; MR 729 was administered by oral route at different doses 2 hours before carbon tetrachloride. The animals were sacrificed after 20 hours and the liver was removed for the determination of liver lipids.

[8] = test system: ethionine-induced hepatic lipidic infiltration; assay: Intoxication by ethionine; format: in vivo; conditions: rat, daily oral administration during the 8 days preceding ethionine
Source text: Also ethionine administration causes in the rat hepatic damages with respect to hepatocytes, occurring as a massive lipidic infiltration.

[9] = MR 729 20 μl (0.1 M aqueous solution)
[10] = MR 729 50 μl (0.1 M aqueous solution)
[11] = MR 729 100 μl (0.1 M aqueous solution)

T2 sequence (P12821 30-1232 limits assumed): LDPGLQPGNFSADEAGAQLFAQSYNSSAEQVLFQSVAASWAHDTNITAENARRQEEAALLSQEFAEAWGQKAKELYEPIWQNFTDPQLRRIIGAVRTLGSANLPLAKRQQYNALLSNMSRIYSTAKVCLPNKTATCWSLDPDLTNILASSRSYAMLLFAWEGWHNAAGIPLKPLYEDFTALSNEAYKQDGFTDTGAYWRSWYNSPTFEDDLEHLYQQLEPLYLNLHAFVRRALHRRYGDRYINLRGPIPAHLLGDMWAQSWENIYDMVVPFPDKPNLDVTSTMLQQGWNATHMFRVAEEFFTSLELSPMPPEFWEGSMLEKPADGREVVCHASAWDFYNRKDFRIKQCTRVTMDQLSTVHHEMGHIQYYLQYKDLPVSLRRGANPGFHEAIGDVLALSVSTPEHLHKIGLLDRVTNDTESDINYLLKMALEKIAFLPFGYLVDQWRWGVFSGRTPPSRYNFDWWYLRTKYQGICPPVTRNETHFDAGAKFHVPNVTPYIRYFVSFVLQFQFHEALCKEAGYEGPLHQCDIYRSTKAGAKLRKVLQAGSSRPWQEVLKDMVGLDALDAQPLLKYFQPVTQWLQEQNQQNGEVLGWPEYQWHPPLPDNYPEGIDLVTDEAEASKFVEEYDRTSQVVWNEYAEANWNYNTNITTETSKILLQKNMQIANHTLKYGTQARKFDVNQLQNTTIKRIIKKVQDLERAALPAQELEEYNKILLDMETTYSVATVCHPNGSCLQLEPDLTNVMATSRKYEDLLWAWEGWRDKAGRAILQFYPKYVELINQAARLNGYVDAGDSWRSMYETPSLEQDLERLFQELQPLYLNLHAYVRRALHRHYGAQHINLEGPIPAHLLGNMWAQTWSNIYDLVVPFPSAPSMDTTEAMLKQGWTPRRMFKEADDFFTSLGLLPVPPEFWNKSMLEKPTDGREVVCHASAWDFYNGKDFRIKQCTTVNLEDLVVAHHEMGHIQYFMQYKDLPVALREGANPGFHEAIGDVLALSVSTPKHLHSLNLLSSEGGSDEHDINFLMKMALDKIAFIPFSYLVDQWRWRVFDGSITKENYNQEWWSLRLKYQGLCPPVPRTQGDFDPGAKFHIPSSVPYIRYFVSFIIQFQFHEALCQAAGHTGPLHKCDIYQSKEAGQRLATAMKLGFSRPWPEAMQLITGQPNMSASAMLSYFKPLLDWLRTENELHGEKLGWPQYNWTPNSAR

For `CC(S)C(=O)NCC(=O)N1CSCC1C(=O)O` (stereo not shown) [MR 729, 3-[N-(2-mercapto-propionyl-amino-acetyl)]-tetrahydro-thiazolyl-4-carboxylic acid], the inhibition at 25 µM [1] was ~63%, the “Effect on liver regeneration” value (liver regeneration) was “acts in a positive way on the regeneration process, without however a clear dose-effect relationship” and the ACE activity [2, 9] was 9 nmol/10 min/20 μl. The “% Enzymatic activity” value [2, 9] was 30%, the ACE activity [2, 10] was 7 nmol/10 min/20 μl and the “% Enzymatic activity” value [2, 10] was 23%. The ACE activity [2, 11] was 3 nmol/10 min/20 μl, the “% Enzymatic activity” value [2, 11] was 10% and the “ID50 (ACE inhibition)” value ([2]; in vitro, normal human serum, 0.1 M aqueous solution of MR 729) was 60. For the same molecule, the “Histological examination of biliary ducts and parenchyma” value [3] was “structure of biliary ducts in the treated animals was practically unchanged”, the “Inhibition of hepatic pathology caused by α-naphtyl-isothiocyanate” value [3] was “inhibits the development of such pathology” and the Decrease of viscosity ([4]; pig gastric mucine, according to the considered dose) was 17-35%. For the same molecule, the “Mucolytic activity higher than equiponderant doses of N-acetyl-S-cysteine” value ([4]; same experimental conditions, according to the doses) was 35-50%, the Sleeping times ([5]; oral 4 days, at highest doses) was “practically within normal limits” and the “Inhibition of CCl4-induced prolongation of hexobarbital sleeping time” value ([5]; oral route for 4 consecutive days at different doses, then CCl4, hexobarbital after 48 hours) was “inhibits the remarkable prolongation of sleeping time”. The LD50 [6] was 395 mg/kg, the “Bronchosecretolytic activity relative to carboxymethylcysteine 500 mg/kg i.p.” value (bronchial secretion) was “fivefold higher activity” and the “Inhibition of liver lipid infiltration induced by CCl4” value [7] was “able to inhibit, in a dose-dependent way, the lipid infiltration”. The “Antagonism of ethionine-induced hepatic lipidic infiltration” value [8] was “effective in antagonizing, with a dose-related intensity, the establishment of this pathology”.
